Test results as given in ChEMBL document CHEMBL3885861, “Open TG-GATES”.

Species: Rattus norvegicus
Experiment: Open TG-GATES - Regimen: Daily Repeat
Format: toxicity, organism-based, Sprague-Dawley
Parameters: regimen Daily Repeat, gender Male, age 6 weeks
Details: in vivo, po, 60 mg/kg, […], route gavage, dose level Middle; for KIDNEY_L / KIDNEY_R / KIDNEY_TOTAL: tissue Kidney; for LIVER: tissue Liver; for A/G / ALP / ALT / AST / BUN / CRE / Ca / Cl / DBIL / GLC / IP / K / LDH / Na / PL / RALB / TBIL / TC / TG / TP / gamma-GTP: tissue Plasma

**Q.** Which results are given for CC(CN1c2ccccc2Sc2ccccc21)N(C)C (stereo unspecified) [PROMETHAZINE]?
**A.** Lym (tissue Blood, time 28 day): 79.2%; MCH (tissue Blood, time 28 day): 19.6 pg; MCHC (tissue Blood, time 28 day): 34.9%; MCV (tissue Blood, time 28 day): 56.4 fL; Mono (tissue Blood, time 28 day): 1.8%; Neu (tissue Blood, time 28 day): 17.2%; PT (tissue Blood, time 28 day): 16.3 s; Plat (tissue Blood, time 28 day): 96 x10_4/uL; RBC (tissue Blood, time 28 day): 778.4 x10_4/ul; Ret (tissue Blood, time 28 day): 2.9%; WBC (tissue Blood, time 28 day): 96 x10_2/uL; KIDNEY_L (time 7 day): 1.1 g; KIDNEY_R (time 7 day): 1.1 g; KIDNEY_TOTAL (time 7 day): 2.2 g; KIDNEY_L (time 14 day): 1.2 g; KIDNEY_R (time 14 day): 1.2 g; KIDNEY_TOTAL (time 14 day): 2.4 g; KIDNEY_L (time 28 day): 1.4 g; KIDNEY_R (time 28 day): 1.4 g; KIDNEY_TOTAL (time 28 day): 2.8 g; LIVER (time 7 day): 13.5 g; LIVER (time 14 day): 14.9 g; LIVER (time 28 day): 17.3 g; A/G (time 7 day): 1.2; ALP (time 7 day): 1458.6 IU/L; ALT (time 7 day): 44 IU/L; AST (time 7 day): 71 IU/L; BUN (time 7 day): 20.6 mg/dL; CRE (time 7 day): 0.2 mg/dL; Ca (time 7 day): 10.7 mg/dL; Cl (time 7 day): 106.2 meq/L; DBIL (time 7 day): 0 mg/dL; GLC (time 7 day): 181.2 mg/dL; IP (time 7 day): 7 mg/dL; K (time 7 day): 4.4 meq/L; LDH (time 7 day): 143.4 IU/L; Na (time 7 day): 141.8 meq/L; PL (time 7 day): 144.4 mg/dL; RALB (time 7 day): 3 g/dL; TBIL (time 7 day): 0.006 mg/dL; TC (time 7 day): 75.4 mg/dL; TG (time 7 day): 106.2 mg/dL; TP (time 7 day): 5.6 g/dL; gamma-GTP (time 7 day): 2.2 IU/L; A/G (time 14 day): 1.2; ALP (time 14 day): 1448 IU/L; ALT (time 14 day): 46.6 IU/L; AST (time 14 day): 72.2 IU/L; BUN (time 14 day): 19 mg/dL; CRE (time 14 day): 0.2 mg/dL; Ca (time 14 day): 10.9 mg/dL; Cl (time 14 day): 106 meq/L; DBIL (time 14 day): 0 mg/dL; GLC (time 14 day): 182.2 mg/dL; IP (time 14 day): 6.9 mg/dL; K (time 14 day): 4.1 meq/L; LDH (time 14 day): 128.4 IU/L; Na (time 14 day): 142.4 meq/L; PL (time 14 day): 150.4 mg/dL; RALB (time 14 day): 3.2 g/dL; TBIL (time 14 day): 0.012 mg/dL; TC (time 14 day): 76 mg/dL; TG (time 14 day): 128.4 mg/dL; TP (time 14 day): 5.9 g/dL; gamma-GTP (time 14 day): 2.4 IU/L; A/G (time 28 day): 1.1; ALP (time 28 day): 1017.8 IU/L; ALT (time 28 day): 49.4 IU/L; AST (time 28 day): 69 IU/L; BUN (time 28 day): 18.8 mg/dL; CRE (time 28 day): 0.2 mg/dL; Ca (time 28 day): 10.8 mg/dL; Cl (time 28 day): 104 meq/L; DBIL (time 28 day): 0 mg/dL; GLC (time 28 day): 185.6 mg/dL; IP (time 28 day): 7 mg/dL; K (time 28 day): 3.7 meq/L; LDH (time 28 day): 158 IU/L; Na (time 28 day): 143.2 meq/L; PL (time 28 day): 152.4 mg/dL; RALB (time 28 day): 3.3 g/dL; TBIL (time 28 day): 0.026 mg/dL; TC (time 28 day): 79 mg/dL; TG (time 28 day): 105.2 mg/dL; TP (time 28 day): 6.3 g/dL; gamma-GTP (time 28 day): 2.2 IU/L
